The results in this text go back to US20230257393A1, “MACROMOLECULE-SUPPORTED THIENOAZEPINE COMPOUNDS, AND USES THEREOF” (BOLT BIOTHERAPEUTICS, INC., priority 2020, published 2023).

In one assay the target is T1, human TLR8 (Homo sapiens, UniProt Q9NR97).
T1 construct: host or cells: HEK293 reporter cells
T1 sequence (Q9NR97 27-1041): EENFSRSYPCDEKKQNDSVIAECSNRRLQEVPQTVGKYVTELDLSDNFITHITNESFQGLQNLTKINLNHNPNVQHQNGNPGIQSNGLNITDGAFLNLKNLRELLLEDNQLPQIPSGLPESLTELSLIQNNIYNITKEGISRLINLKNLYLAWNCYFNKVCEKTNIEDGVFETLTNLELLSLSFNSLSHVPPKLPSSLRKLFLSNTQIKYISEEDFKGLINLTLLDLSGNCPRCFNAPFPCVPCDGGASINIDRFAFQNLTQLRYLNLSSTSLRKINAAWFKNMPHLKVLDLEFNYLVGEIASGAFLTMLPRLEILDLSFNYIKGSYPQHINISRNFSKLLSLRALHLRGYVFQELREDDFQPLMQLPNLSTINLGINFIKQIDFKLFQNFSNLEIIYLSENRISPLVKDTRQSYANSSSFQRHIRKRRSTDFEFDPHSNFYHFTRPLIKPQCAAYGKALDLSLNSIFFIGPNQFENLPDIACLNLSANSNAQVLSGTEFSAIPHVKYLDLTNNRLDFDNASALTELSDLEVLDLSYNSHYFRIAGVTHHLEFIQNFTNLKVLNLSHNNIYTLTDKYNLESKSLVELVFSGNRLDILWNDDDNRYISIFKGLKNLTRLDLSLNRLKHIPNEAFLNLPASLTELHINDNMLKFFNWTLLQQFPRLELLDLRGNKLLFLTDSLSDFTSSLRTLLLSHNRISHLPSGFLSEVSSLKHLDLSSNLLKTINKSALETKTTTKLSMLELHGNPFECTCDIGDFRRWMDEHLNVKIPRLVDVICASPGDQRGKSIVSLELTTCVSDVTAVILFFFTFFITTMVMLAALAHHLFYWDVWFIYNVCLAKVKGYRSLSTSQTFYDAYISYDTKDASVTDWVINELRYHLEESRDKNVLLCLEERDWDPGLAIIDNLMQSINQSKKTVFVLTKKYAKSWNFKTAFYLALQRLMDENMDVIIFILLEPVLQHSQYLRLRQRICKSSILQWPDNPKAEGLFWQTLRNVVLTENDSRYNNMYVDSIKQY
Kind of assay: HEK Reporter Assay, HEK293 NFKB reporter cells expressing human TLR8. As to conditions: read-out: HEK293 hTLR8 EC50. Type of assay: cell-based. The protocol: (§1) Each compound was synthesized, purified, and characterized by mass spectrometry and shown to have the mass indicated. Additional experimental procedures are found in the Examples. Activity against HEK293 NFKB reporter cells expressing human TLR7 or human TLR8 was measured according to Example 202.
(§2) HEK293 reporter cells expressing human TLR7 or human TLR8 were purchased from Invivogen and vendor protocols were followed for cellular propagation and experimentation. Briefly, cells were grown to 80-85% confluence at 5% CO2 in DMEM supplemented with 10% FBS, Zeocin, and Blasticidin. Cells were then seeded in 96-well flat plates at 4×10^4 cells/well with substrate containing HEK detection medium and immunostimulatory molecules. Activity was measured using a plate reader at 620-655 nm wavelength.

For a further assay, the target named is T2, human TLR7 (Homo sapiens, UniProt Q9NYK1).
T2 construct: host or cells: HEK293 reporter cells
T2 sequence (Q9NYK1 27-1049): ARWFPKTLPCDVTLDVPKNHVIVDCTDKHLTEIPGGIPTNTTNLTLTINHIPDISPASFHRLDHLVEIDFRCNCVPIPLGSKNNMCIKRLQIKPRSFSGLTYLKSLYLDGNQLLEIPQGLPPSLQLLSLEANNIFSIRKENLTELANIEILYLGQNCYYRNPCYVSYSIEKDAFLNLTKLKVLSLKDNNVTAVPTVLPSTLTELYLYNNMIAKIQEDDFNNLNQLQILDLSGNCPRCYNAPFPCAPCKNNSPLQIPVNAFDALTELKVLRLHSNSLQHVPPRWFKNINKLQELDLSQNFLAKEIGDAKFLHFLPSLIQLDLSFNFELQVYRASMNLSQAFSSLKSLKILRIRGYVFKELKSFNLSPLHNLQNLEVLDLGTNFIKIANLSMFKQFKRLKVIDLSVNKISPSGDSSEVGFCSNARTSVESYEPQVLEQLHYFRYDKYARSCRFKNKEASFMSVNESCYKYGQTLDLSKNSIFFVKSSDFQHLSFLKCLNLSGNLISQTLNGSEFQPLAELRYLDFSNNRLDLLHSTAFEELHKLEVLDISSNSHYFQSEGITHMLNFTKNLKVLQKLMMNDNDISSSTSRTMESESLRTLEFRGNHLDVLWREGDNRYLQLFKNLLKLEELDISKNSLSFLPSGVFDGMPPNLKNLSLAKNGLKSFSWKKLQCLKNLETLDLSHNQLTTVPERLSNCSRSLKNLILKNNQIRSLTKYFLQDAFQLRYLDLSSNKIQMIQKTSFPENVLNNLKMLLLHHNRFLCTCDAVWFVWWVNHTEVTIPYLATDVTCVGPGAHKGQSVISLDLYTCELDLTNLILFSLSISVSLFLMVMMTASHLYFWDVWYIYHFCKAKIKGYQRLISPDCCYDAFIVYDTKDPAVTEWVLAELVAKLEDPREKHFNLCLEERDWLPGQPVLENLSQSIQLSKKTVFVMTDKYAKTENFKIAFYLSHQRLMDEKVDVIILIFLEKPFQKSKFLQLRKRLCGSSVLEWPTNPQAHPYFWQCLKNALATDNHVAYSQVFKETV
Kind of assay: HEK Reporter Assay, HEK293 NFKB reporter cells expressing human TLR7. The class given is cell-based. Particulars: read-out: HEK293 hTLR7 EC50. On the procedure: as §1, §2

Usually EC50 stands for the concentration giving half of the maximal effect.

Where two headings read alike, the source gives them in different places.

`CCCN(Cc1cnc(CN(C)C)c(C(F)(F)F)c1)C(=O)C1=Cc2sc(CCCCCNC(=O)OC(C)(C)C)cc2N=C(N)C1` [TAZ-128]: the EC50 on human TLR8 (Table 1c) and on human TLR7 (Table 1c) was no less than 9 µM each time.
Regarding `CCCN(Cc1ccc(CN(C)C)c(C(F)(F)F)n1)C(=O)C1=Cc2sc(CCCCCNC(=O)OC(C)(C)C)cc2N=C(N)C1` [TAZ-146], the EC50 on human TLR8 (Table 1c) and at human TLR7 (Table 1c) was no less than 9 µM each time.
Take `CCCN(OCC)C(=O)C1=Cc2sc(COCCCN)cc2N=C(N)C1` [TAZ-73]: the half-maximal effective concentration (EC50) was 2.98 µM at human TLR8 (Table 1b) and greater than 9 µM on human TLR7 (Table 1b).
As to `CCCN(CCC)C(=O)C1=Cc2sc(-c3ccccc3)cc2N=C(N)C1` [TAZ-18, 5-amino-2-phenyl-N,N-dipropyl-6H-thieno[3,2-b]azepine-7-carboxamide], the EC50 on human TLR8 (Table 1a) and on human TLR7 (Table 1a) was greater than 9 µM in each case.
As for `CCCN(CCC)C(=O)C1=Cc2sc(-c3cnn(COCC[Si](C)(C)C)c3)cc2N=C(N)C1` [TAZ-19, 5-amino-N,N-dipropyl-2-(1-((2-(trimethylsilyl)ethoxy)methyl)-1H-pyrazol-4-yl)-6H-thieno[3,2-b]azepine-7-carboxamide], the EC50 on human TLR8 (Table 1a) and on human TLR7 (Table 1a) was greater than 9 µM each time.
Take `CCCN(OCC)C(=O)C1=Cc2sc(C#CC3CNC3)cc2N=C(N)C1` [TAZ-193]: the EC50 was found to be 1.52 µM on human TLR8 (Table 1c) and 3.36 µM on human TLR7 (Table 1c).
The corresponding values for `CCCN(OCC)C(=O)C1=Cc2sc(CN3CCN(c4ccc(C(=O)OC(C)(C)C)cc4)CC3)cc2N=C(N)C1` [TAZ-205] are no less than 9 µM and no less than 9 µM.
Consider `CCCN(CCC)C(=O)C1=Cc2sc(-c3cccc(S(=O)(=O)N4CC(CO)C4)c3)cc2N=C(N)C1` [TAZ-4, 5-amino-2-[3-[3-(hydroxymethyl)azetidin-1-yl]sulfonylphenyl]-N,N-dipropyl-6H-thieno[3,2-b]azepine-7-carboxamide], for which the EC50 at human TLR8 (Table 1a) and on human TLR7 (Table 1a) was greater than 9 µM in each case.
Take `CCCN(CCCN)C(=O)C1=Cc2sccc2N=C(N)C1` [TAZ-11, 5-amino-N-(3-aminopropyl)-N-propyl-6H-thieno[3,2-b]azepine-7-carboxamide]: the EC50 at human TLR8 (Table 1a) and at human TLR7 (Table 1a) was greater than 9 µM each time.
With `CCCN(Cc1ccc(CNC(=O)OC(C)(C)C)cc1)C(=O)C1=Cc2sccc2N=C(N)C1` [TAZ-29, tert-butyl (4-((5-amino-N-propyl-6H-thieno[3,2-b]azepine-7-carboxamido)methyl)benzyl)carbamate], the half-maximal effective concentration (EC50) on human TLR8 (Table 1a) and at human TLR7 (Table 1a) was greater than 9 µM each time.
For the compound `CCCN(CCC)C(=O)C1=Cc2sc(C(=O)Nc3ccc(N4CCC(C(=O)NCCNC(=O)OC(C)(C)C)CC4)nc3)cc2N=C(N)C1` [TAZ-3, tert-butyl (2-(1-(5-(5-amino-7-(dipropylcarbamoyl)-6H-thieno[3,2-b]azepine-2-carboxamido)pyridin-2-yl)piperidine-4-carboxamido)ethyl)carbamate], the EC50 on human TLR8 (Table 1a) and on human TLR7 (Table 1a) was greater than 9 µM in each case.
Consider `CCCN(CCCNC(=O)OC1CCC1)C(=O)C1=Cc2sc(C#CC3CNC3)cc2N=C(N)C1` [TAZ-192], for which the EC50 at human TLR8 (Table 1c) amounted to 3.48 µM; at human TLR7 (Table 1c), 0.824 µM.
For the compound `CCCN(CCC)C(=O)C1=Cc2sc(CCCCCNC(=O)OC(C)(C)C)cc2N=C(N)C1` [TAZ-13, tert-butyl N-[5-[5-amino-7-(dipropylcarbamoyl)-6H-thieno[3,2-b]azepin-2-yl]pentyl]carbamate], the EC50 on human TLR8 (Table 1a) and at human TLR7 (Table 1a) was greater than 9 µM each time.
As for `CCCN(CCC)C(=O)C1=Cc2sc(C(=O)O)cc2N=C(N)C1` [TAZ-22, 5-amino-7-(dipropylcarbamoyl)-6H-thieno[3,2-b]azepine-2-carboxylic acid], the EC50 at human TLR8 (Table 1a) and at human TLR7 (Table 1a) was greater than 9 µM throughout.
With `CCCN(CCC)C(=O)C1=Cc2sc(C(=O)OC)cc2N=C(N)C1` [TAZ-20, methyl 5-amino-7-(dipropylcarbamoyl)-6H-thieno[3,2-b]azepine-2-carboxylate], the EC50 at human TLR8 (Table 1a) and on human TLR7 (Table 1a) was greater than 9 µM each time.
As for `CCCN(CCC)C(=O)C1=Cc2sc(C(=O)Nc3cncnc3)cc2N=C(N)C1` [TAZ-27, 5-amino-N7,N7-dipropyl-N2-pyrimidin-5-yl-6H-thieno[3,2-b]azepine-2,7-dicarboxamide], the EC50 at human TLR8 (Table 1a) and on human TLR7 (Table 1a) was greater than 9 µM in each case.
Turning to `CCONC(=O)C1=Cc2sc(CC3CNC3)cc2N=C(N)C1` [TAZ-250], the EC50 at human TLR8 (Table 1c) and at human TLR7 (Table 1c) was no less than 9 µM in each case.
Consider `CN(C)Cc1ccc(CN(CCC(F)(F)F)C(=O)C2=Cc3sc(CCCCCN)cc3N=C(N)C2)cc1` [TAZ-117], for which the EC50 at human TLR8 (Table 1c) and on human TLR7 (Table 1c) was no less than 9 µM in each case.
Take `CCCN(CCC)C(=O)C1=Cc2sc3ccccc3c2N=C(N)C1` [TAZ-28, 2-amino-N,N-dipropyl-3H-benzo[4,5]thieno[3,2-b]azepine-4-carboxamide]: the EC50 at human TLR8 (Table 1a) and at human TLR7 (Table 1a) was greater than 9 µM each time.
Take `CCCN(OCC)C(=O)C1=Cc2sc(CN3CCCN(C(=O)OC(C)(C)C)CC3)cc2N=C(N)C1` [TAZ-226]: the EC50 on human TLR8 (Table 1c) stood at 4.43 µM; on human TLR7 (Table 1c) it was 0.436 µM.
Take `CCCN(CCC)C(=O)C1=Cc2sc(COCCNC(=O)OC(C)(C)C)cc2N=C(N)C1` [TAZ-80]: the EC50 was 3.79 µM at human TLR8 (Table 1b) and 4 µM at human TLR7 (Table 1b).
In the case of `CCCN(CCC)C(=O)C1=Cc2sc(-c3cn[nH]c3)cc2N=C(N)C1` [TAZ-21, 5-amino-N,N-dipropyl-2-(1H-pyrazol-4-yl)-6H-thieno[3,2-b]azepine-7-carboxamide], the EC50 on human TLR8 (Table 1a) and on human TLR7 (Table 1a) was greater than 9 µM in each case.
For the compound `CCCN(CCC)C(=O)C1=Cc2sc(C(=O)NCC)cc2N=C(N)C1` [TAZ-24, 5-amino-N2-ethyl-N7,N7-dipropyl-6H-thieno[3,2-b]azepine-2,7-dicarboxamide], the EC50 on human TLR8 (Table 1a) and on human TLR7 (Table 1a) was greater than 9 µM throughout.
Take `CCCN(OCC)C(=O)C1=Cc2sc(CN3CC4(CNC4)C3)cc2N=C(N)C1` [TAZ-207]: the EC50 at human TLR8 (Table 1c) and on human TLR7 (Table 1c) was no less than 9 µM throughout.
`CCCN(CCC)C(=O)C1=Cc2sc(C(=O)Nc3ccccc3)cc2N=C(N)C1` [TAZ-23, 5-amino-N2-phenyl-N7,N7-dipropyl-6H-thieno [3,2-b]azepine-2,7-dicarboxamide]: the EC50 at human TLR8 (Table 1a) and on human TLR7 (Table 1a) was greater than 9 µM each time.
Regarding `CCCN(CCCNC(=O)CC(C)(C)C)C(=O)C1=Cc2sc(CN3CCNCC3)cc2N=C(N)C1` [TAZ-139], on human TLR8 (Table 1c), the EC50 is no less than 9 µM.
